# Read-outs that look alike come from different tables or passages of the source.
# Legend:
# [1] = system: B/Florida/04/2006; assay: Antiviral activity (drug efficacy evaluation by concentration) against B/Florida/04/2006; assay type: cell-based, B type influenza virus
# [2] = system: A/Perth/16/2009 (H3N2); assay: Antiviral activity (drug efficacy evaluation by concentration) against A/Perth/16/2009 (H3N2); assay type: cell-based, A type influenza virus; conditions: Influenza A virus
# [3] = system: A/California/07/2009 (H1N1); assay: Antiviral activity (drug efficacy evaluation by concentration) against A/California/07/2009 (H1N1); assay type: cell-based, A type influenza virus; conditions: Influenza A virus
# [4] = in vitro
# [5] = read-out: EC50 B/Florida/04/2006, B/Florida/04/2006
# [6] = H3N2, A/Perth/16/2009 (H3N2), read-out: EC50 A/Perth/16/2009 (H3N2)
# [7] = H1N1, A/California/07/2009 (H1N1), read-out: EC50 A/California/07/2009 (H1N1)
# [8] = CC50 B/Florida/04/2006, cytotoxicity in the B/Florida/04/2006 assay
# [9] = CC50, third EC50/CC50 column pair (c7), beside the EC50 of c6
Structure (SMILES),"EC50 [1, 5] [µM]","EC50 [2, 6] [µM]","EC50 [3, 7] [µM]","CC50 [4, 8] [µM]",EC50 [1] [µM],"EC50 ([2]; H3N2, read-out: EC50) [µM]","EC50 ([3]; H1N1, read-out: EC50) [µM]","CC50 ([4]; CC50, beside the EC50 of c2) [µM]","CC50 ([4]; CC50, beside the EC50 of c4) [µM]","CC50 [4, 9] [µM]"
"c1ccc(-c2ccccc2CSc2nnc(Cc3ccccn3)o2)cc1 [Compound 27, 2-(([1,1′-biphenyl]-2-ylmethyl)thio)-5-(pyridin-2-ylmethyl)-1,3,4-oxadiazole]",13.4,6.8,8.7,> 50,–,–,–,–,–,–
"Cc1nn(Cc2nnc(SCc3ccccc3-c3cccnc3)o2)c(C)c1Br [Compound 19, 2-((4-bromo-3,5-dimethyl-1H-pyrazol-1-yl)methyl)-5-((2-(pyridin-3-yl)benzyl)thio)-1,3,4-oxadiazole]",> 50,> 50,> 50,> 50,–,–,–,–,–,–
"Cc1nn(Cc2nnc(SCc3ccccc3-c3ccccc3)o2)c(C)c1Cl [Compound 7, 2-(([1,1′-biphenyl]-2-ylmethyl)thio)-5-((4-chloro-3,5-dimethyl-1H-pyrazol-1-yl)methyl)-1,3,4-oxadiazole]",1.11,1.89,1.26,> 50,–,–,–,–,–,–
"Cc1nn(Cc2nnc(SCc3ccccc3)o2)c(C)c1Br [Compound 14, 2-(benzylthio)-5-((4-bromo-3,5-dimethyl-1H-pyrazol-1-yl)methyl)-1,3,4-oxadiazole]",16.4,20.5,18,> 50,–,–,–,–,–,–
"Cc1ccc(Cc2nnc(/C=C/c3ccccc3C(C)C)o2)cc1C [Compound 146, 2-(3,4-dimethylbenzyl)-5-(2-isopropylstyryl)-1,3,4-oxadiazole]",–,–,–,–,3.07,3.74,5.27,24.1,> 50,> 50
"Cc1nn(Cc2nnc(SCc3ccccc3C(C)C)o2)c(C)c1Br [Compound 23, 2-((4-bromo-3,5-dimethyl-1H-pyrazol-1-yl)methyl)-5-((2-isopropylbenzyl)thio)-1,3,4-oxadiazole]",0.82,1.1,0.6,14.2,–,–,–,–,–,–
"c1ccc(-c2cnn(Cc3nnc(SCc4ccccc4-c4ccccc4)o3)c2)cc1 [Compound 30, 2-(([1,1′-biphenyl]-2-ylmethyl)thio)-5-((4-phenyl-1H-pyrazol-1-yl)methyl)-1,3,4-oxadiazole]",> 50,13,> 50,> 50,–,–,–,–,–,–
"Cc1nn(Cc2nnc(SCc3ccccc3-n3cccc3)o2)c(C)c1Br [Compound 31, 2-((2-(1H-pyrrol-1-yl)benzyl)thio)-5-((4-bromo-3,5-dimethyl-1H-pyrazol-1-yl)methyl)-1,3,4-oxadiazole]",3.57,2.3,1.8,11.8,–,–,–,–,–,–
"COc1ccccc1/C=C/c1nnc(Cc2cccc(Br)c2)o1 [Compound 210, 2-(3-bromobenzyl)-5-(2-methoxystyryl)-1,3,4-oxadiazole]",–,–,–,–,36.2,23.5,47.3,48.1,48.1,46.8
"Cc1nn(Cc2nnc(N(C)Cc3ccccc3-c3ccccc3)o2)c(C)c1Br [Compound 44, N-([1,1′-biphenyl]-2-ylmethyl)-5-((4-bromo-3,5-dimethyl-1H-pyrazol-1-yl)methyl)-N-methyl-1,3,4-oxadiazol-2-amine]",> 50,29.4,> 50,> 50,–,–,–,–,–,–
"CC(C)c1ccccc1CCc1nnc(Cc2ccc(Br)cc2)o1 [Compound 92, 2-(4-bromobenzyl)-5-(2-isopropylphenethyl)-1,3,4-oxadiazole]",–,–,–,–,6.59,6.42,7.17,> 50,> 50,> 50
"Cc1ccccc1CSc1nnc(Cn2nc(C)c(Br)c2C)o1 [Compound 9, 2-((4-bromo-3,5-dimethyl-1H-pyrazol-1-yl)methyl)-5-((2-methylbenzyl)thio)-1,3,4-oxadiazole]",4.7,5.55,4.2,> 50,–,–,–,–,–,–
"Clc1cccc(Cc2nnc(SCc3ccccc3-c3ccccc3)o2)c1 [Compound 95, 2-(([1,1′-biphenyl]-2-ylmethyl)thio)-5-(3-chlorobenzyl)-1,3,4-oxadiazole]",–,–,–,–,37.6,41.4,12.5,> 50,> 50,> 50
"Brc1ccc(Cc2nnc(CC3CCCc4ccccc43)o2)cc1 (centres unmarked) [Compound 109, 2-(4-bromobenzyl)-5-((1,2,3,4-tetrahydronaphthalen-1-yl)methyl)-1,3,4-oxadiazole]",–,–,–,–,34.7,32.4,45.9,> 50,> 50,> 50
"Cc1cc(C)n(Cc2nnc(SCc3ccccc3-c3ccccc3)o2)n1 [Compound 5, 2-(([1,1′-biphenyl]-2-ylmethyl)thio)-5-((3,5-dimethyl-1H-pyrazol-1-yl)methyl)-1,3,4-oxadiazole]",9.49,10.7,8.68,> 50,–,–,–,–,–,–
"Cc1cccc(C)c1CCc1nnc(Cc2ccc(Br)cc2)o1 [Compound 135, 2-(4-bromobenzyl)-5-(2,6-dimethylphenethyl)-1,3,4-oxadiazole]",–,–,–,–,5.63,4.38,6.4,> 50,> 50,> 50
"Cc1nn(Cc2nnc(NCc3ccccc3-c3ccccc3)o2)c(C)c1Br [Compound 17, N-([1,1′-biphenyl]-2-ylmethyl)-5-((4-bromo-3,5-dimethyl-1H-pyrazol-1-yl)methyl)-1,3,4-oxadiazol-2-amine]",19,30,35.2,38.1,–,–,–,–,–,–
"Brc1ccc(Nc2nnc(/C=C/c3ccccc3Br)o2)cc1 [Compound 83, (E)-N-(4-bromophenyl)-5-(2-bromostyryl)-1,3,4-oxadiazol-2-amine]",–,–,–,–,4.63,4.75,4.25,> 50,> 50,> 50
"CC(C)c1ccccc1CCc1nnc(Cc2ccc(OC(F)(F)F)cc2)o1 [Compound 93, 2-(2-isopropylphenethyl)-5-(4-(trifluoromethoxy)benzyl)-1,3,4-oxadiazole]",–,–,–,–,45.1,31.5,22.1,> 50,> 50,> 50
"Brc1cccc(Cc2nnc(SCc3ccccc3-c3ccccc3)o2)c1 [Compound 104, 2-(([1,1′-biphenyl]-2-ylmethyl)thio)-5-(3-bromobenzyl)-1,3,4-oxadiazole]",–,–,–,–,42.8,> 50,> 50,> 50,> 50,> 50
"Cc1ccc(F)c(Cc2nnc(/C=C/c3ccccc3C(C)C)o2)c1 [Compound 173, 2-(2-fluoro-5-methylbenzyl)-5-(2-isopropylstyryl)-1,3,4-oxadiazole]",–,–,–,–,1.91,1.71,1.77,13.5,12.6,15.8
"Brc1ccc(Nc2nnc(CCc3ccccc3-c3ccccc3)o2)cc1 [Compound 118, 5-(2-([1,1′-biphenyl]-2-yl)ethyl)-N-(4-bromophenyl)-1,3,4-oxadiazol-2-amine]",–,–,–,–,> 50,> 50,43.9,> 50,> 50,> 50

# Source: patent US11149033B2, “Heteroaryl compound, enantiomer, diastereomer or pharmaceutically acceptable salt thereof, and antiviral composition containing same as active ingredient” (priority 2016, dated 2021)
